Read-outs that look alike come from different tables or passages of the source.
Biological target: human ALK5 (Homo sapiens (Human), UniProt P36897)
Assay: ADP-GLO Kinases assay, inhibitory activity on ALK5
Assay type: biochemical
Method: The enzymatic activity of compounds of the present invention was monitored measuring the formation of ADP using the ADP-GLO Kinases assay. Following the incubation of the purified enzyme, a substrate and ATP, the produced ADP was converted into ATP, which in turn was converted into light by Ultra-Glo Luciferase. The luminescent signal positively correlated with ADP amount and kinase activity. […] The assay was performed in 384-well format and was validated using a selection of reference compounds that was tested in 11 point concentration-response curve.

[1] = purified recombinant human ALK5 2.6 nM, TGFβ1 peptide substrate, 25° C, 150 min incubation, ADP-Glo detection, read-out: ALK5 IC50

Sequence of human ALK5 (P36897 80-503 limits assumed): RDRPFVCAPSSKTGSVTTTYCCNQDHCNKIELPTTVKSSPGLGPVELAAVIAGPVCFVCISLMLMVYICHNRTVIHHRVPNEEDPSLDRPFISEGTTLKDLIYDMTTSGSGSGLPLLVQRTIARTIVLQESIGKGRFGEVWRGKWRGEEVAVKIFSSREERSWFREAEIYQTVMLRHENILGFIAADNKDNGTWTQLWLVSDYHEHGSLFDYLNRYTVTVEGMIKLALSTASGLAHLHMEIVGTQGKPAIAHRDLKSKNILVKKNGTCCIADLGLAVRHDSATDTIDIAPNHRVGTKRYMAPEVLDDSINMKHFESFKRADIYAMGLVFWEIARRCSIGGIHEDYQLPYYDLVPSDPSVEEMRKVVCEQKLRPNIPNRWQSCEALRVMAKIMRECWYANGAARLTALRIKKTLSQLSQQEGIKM

`N#CCCN1CCN(CCOc2ccc3c(Nc4cnnc(-c5cc(Cl)ccc5F)c4)ccnc3c2)CC1` [Example 71, 3-(4-{2-[(4-{[6-(5-Chloro-2-Fluorophenyl)Pyridazin-4-Yl]Amino}Quinolin-7-Yl)Oxy]Ethyl}Piperazin-1-Yl)Propanenitrile] gave an IC50 [1] of under 1 nM.
Compound `OCCN1CCN(CCOc2ccc3c(Nc4cnnc(-c5cc(Cl)ccc5F)c4)ccnc3c2)CC1` [Example 72, 2-(4-{2-[(4-{[6-(5-Chloro-2-Fluorophenyl)Pyridazin-4-Yl]Amino}Quinolin-7-Yl)Oxy]Ethyl}Piperazin-1-Yl)Ethan-1-Ol] has an IC50 [1] of under 1 nM.
`CN1CCC(Oc2ccc3c(Nc4cnnc(-c5cc(Cl)ccc5F)c4)ccnc3c2)CC1` [Example 73, N-[6-(5-Chloro-2-Fluorophenyl)Pyridazin-4-Yl]-7-[(1-Methylpiperidin-4-Yl)Oxy]Quinolin-4-Amine] gave an IC50 [1] of under 1 nM.
In the case of `Cc1nnc(-c2cc(Cl)ccc2F)cc1Nc1ccnc(NC(=O)CCN2CCNCC2)c1` [Example 74, N-(4-{[6-(5-chloro-2-fluorophenyl)-3-methylpyridazin-4-yl]amino}pyridin-2-yl)-3-(piperazin-1-yl)propanamide], the IC50 [1] is reported as under 1 nM.
`OCCN(CCO)CCN1CCN(CCOc2ccc3c(Nc4cnnc(-c5cc(Cl)ccc5F)c4)ccnc3c2)CC1` [Example 75, 2-{[2-(4-{2-[(4-{[6-(5-Chloro-2-Fluorophenyl)Pyridazin-4-Yl]Amino}Quinolin-7-Yl)Oxy]Ethyl}Piperazin-1-Yl)Ethyl](2-Hydroxyethyl)Amino}Ethan-1-Ol] was tested, and the IC50 [1] was under 1 nM.
`Cc1nnc(-c2cc(Cl)ccc2F)cc1Nc1ccnc(NC(=O)CCN2CCN(CCN)CC2)c1` [Example 76, 3-[4-(2-Aminoethyl)Piperazin-1-Yl]-N-(4-{[6-(5-Chloro-2-Fluorophenyl)-3-Methylpyridazin-4-Yl]Amino}Pyridin-2-Yl)Propanamide] showed an IC50 [1] of under 1 nM.
For `COC(=O)NCCN1CCN(CCOc2ccc3c(Nc4cnnc(-c5cc(Cl)ccc5F)c4)ccnc3c2)CC1` [Example 77, Methyl N-[2-(4-{2-[(4-{[6-(5-Chloro-2-Fluorophenyl)Pyridazin-4-Yl]Amino}Quinolin-7-Yl)Oxy]Ethyl}Piperazin-1-Yl)Ethyl]Carbamate], the IC50 [1] was under 1 nM.
`Cc1nnc(-c2cc(Cl)ccc2F)cc1Nc1ccnc(NC(=O)CCN2CCOCC2)c1` [Example 78, N-(4-{[6-(5-Chloro-2-Fluorophenyl)-3-Methylpyridazin-4-Yl]Amino}Pyridin-2-Yl)-3-(Morpholin-4-Yl)Propanamide] was tested, and the IC50 [1] was under 1 nM.
Work on `CCOC1(CO)CN(CCC(=O)Nc2cc(Nc3cc(-c4cc(Cl)ccc4F)nnc3C)ccn2)C1` [Example 79, N-(4-{[6-(5-chloro-2-fluorophenyl)-3-methylpyridazin-4-yl]amino}pyridin-2-yl)-3-[3-ethoxy-3-(hydroxymethyl)azetidin-1-yl]propanamide] yielded an IC50 [1] of under 1 nM.
With `Cc1nnc(-c2cc(Cl)ccc2F)cc1Nc1ccnc(NC(=O)CCN2CCN(CCO)CC2)c1` [Example 80, N-(4-{[6-(5-Chloro-2-Fluorophenyl)-3-Methylpyridazin-4-Yl]Amino}Pyridin-2-Yl)-3-[4-(2-Hydroxyethyl)Piperazin-1-Yl]Propanamide] the IC50 [1] was under 1 nM.
Compound `Cc1nnc(-c2cc(Cl)ccc2F)cc1Nc1ccnc2cc(OC(=O)N3CCN(CCC4CCN(C)CC4)CC3)ccc12` [Example 81, 4-{[6-(5-Chloro-2-Fluorophenyl)-3-Methylpyridazin-4-Yl]Amino}Quinolin-7-Yl 4-[2-(1-Methylpiperidin-4-Yl)Ethyl]Piperazine-1-Carboxylate] has an IC50 [1] of under 1 nM.
`COC(=O)NCCN1CCN(CCC(=O)Nc2cc(Nc3cc(-c4cc(Cl)ccc4F)nnc3C)ccn2)CC1` [Example 82, Methyl N-[2-(4-{2-[(4-{[6-(5-Chloro-2-Fluorophenyl)-3-Methylpyridazin-4-Yl]Amino}Pyridin-2-Yl)Carbamoyl]Ethyl}Piperazin-1-Yl)Ethyl]Carbamate] showed an IC50 [1] of under 1 nM.
`Cc1nnc(-c2cc(Cl)ccc2F)cc1Nc1ccnc(NC(=O)CCN2CCN(CCC#N)CC2)c1` [Example 84, N-(4-{[6-(5-Chloro-2-Fluorophenyl)-3-Methylpyridazin-4-Yl]Amino}Pyridin-2-Yl)-3-[4-(2-Cyanoethyl)Piperazin-1-Yl]Propanamide] gave an IC50 [1] of under 1 nM.
Work on `Cc1nnc(-c2cc(Cl)ccc2F)cc1Nc1ccnc(NC(=O)N2CCN(C)CC2)c1` [Example 85, N-(4-{[6-(5-Chloro-2-Fluorophenyl)-3-Methylpyridazin-4-Yl]Amino}Pyridin-2-Yl)-4-Methylpiperazine-1-Carboxamide] yielded an IC50 [1] of under 1 nM.
Compound `COc1cc2c(Nc3cnnc(-c4cc(Cl)ccc4F)c3)ccnc2cc1OCCN1CCN(C)CC1` [Example 87, N-[6-(5-Chloro-2-Fluorophenyl)Pyridazin-4-Yl]-6-Methoxy-7-[2-(4-Methylpiperazin-1-Yl)Ethoxy]Quinolin-4-Amine] has an IC50 [1] of under 1 nM.
`Cc1nnc(-c2cc(Cl)ccc2F)cc1Nc1ccnc(NC(=O)C2CCN(C)CC2)c1` [Example 88, N-(4-{[6-(5-Chloro-2-Fluorophenyl)-3-Methylpyridazin-4-Yl]Amino}Pyridin-2-Yl)-1-Methylpiperidine-4-Carboxamide] was tested, and the IC50 [1] was 1 to 5 nM.
Work on `CN1CCC(COc2ccc3c(Nc4cnnc(-c5cc(Cl)ccc5F)c4)ccnc3c2)CC1` [Example 89, N-[6-(5-Chloro-2-Fluorophenyl)Pyridazin-4-Yl]-7-[(1-Methylpiperidin-4-Yl)Methoxy]Quinolin-4-Amine] yielded an IC50 [1] of under 1 nM.
`CN1CCN(CCOc2ccc3c(Nc4cnnc(-c5cc(Cl)ccc5F)c4)ccnc3c2)C1` [Example 90, N-[6-(5-Chloro-2-Fluorophenyl)Pyridazin-4-Yl]-7-[2-(3-Methylimidazolidin-1-Yl)Ethoxy]Quinolin-4-Amine] showed an IC50 [1] of under 1 nM.
`COC(=O)C1CN(CCC(=O)Nc2cc(Nc3cc(-c4cc(Cl)ccc4F)nnc3C)ccn2)CCN1` (stereo not drawn) [Example 91, Methyl 4-{2-[(4-{[6-(5-Chloro-2-Fluorophenyl)-3-Methylpyridazin-4-Yl]Amino}Pyridin-2-Yl)Carbamoyl]Ethyl}Piperazine-2-Carboxylate] showed an IC50 [1] of under 1 nM.
`CNCCNCCC(=O)Nc1cc(Nc2cc(-c3cc(Cl)ccc3F)nnc2C)ccn1` [Example 93, N-(4-{[6-(5-Chloro-2-Fluorophenyl)-3-Methylpyridazin-4-Yl]Amino}Pyridin-2-Yl)-3-{[2-(Methylamino)Ethyl]Amino}Propanamide] gave an IC50 [1] of under 1 nM.
`COC(=O)C1CN(CCC(=O)Nc2cc(Nc3cc(-c4cc(Cl)ccc4F)nnc3C)ccn2)CCN1C` (stereo not drawn) [Example 94, Methyl 4-{2-[(4-{[6-(5-Chloro-2-Fluorophenyl)-3-Methylpyridazin-4-Yl]Amino}Pyridin-2-Yl)Carbamoyl]Ethyl}-1-Methylpiperazine-2-Carboxylate] showed an IC50 [1] of under 1 nM.
With `Cc1nnc(-c2cc(Cl)ccc2F)cc1Nc1ccnc(NC(=O)CCN2CCN(C)C(C(=O)O)C2)c1` (stereo not drawn) [Example 95, 4-{2-[(4-{[6-(5-chloro-2-fluorophenyl)-3-methylpyridazin-4-yl]amino}pyridin-2-yl)carbamoyl]ethyl}-1-methylpiperazine-2-carboxylic acid] the IC50 [1] was under 1 nM.
In the case of `COC(=O)CN1CCN(CC(=O)Nc2cc(Nc3cc(-c4cc(Cl)ccc4F)nnc3C)ccn2)CC1` [Example 96, methyl 2-(4-{[(4-{[6-(5-chloro-2-fluorophenyl)-3-methylpyridazin-4-yl]amino}pyridin-2-yl)carbamoyl]methyl}piperazin-1-yl)acetate], the IC50 [1] is reported as under 1 nM.
Compound `COC(=O)CC1CN(CCC(=O)Nc2cc(Nc3cc(-c4cc(Cl)ccc4F)nnc3C)ccn2)CCN1` (stereo not drawn) [Example 97, Methyl 2-(4-{2-[(4-{[6-(5-Chloro-2-Fluorophenyl)-3-Methylpyridazin-4-Yl]Amino}Pyridin-2-Yl)Carbamoyl]Ethyl}Piperazin-2-Yl)Acetate] has an IC50 [1] of under 1 nM.
With `COC(=O)CC1CN(CCC(=O)Nc2cc(Nc3cc(-c4cc(Cl)ccc4F)nnc3C)ccn2)CCN1C` (stereo not drawn) [Example 98, Methyl 2-(4-{2-[(4-{[6-(5-Chloro-2-Fluorophenyl)-3-Methylpyridazin-4-Yl]Amino}Pyridin-2-Yl)Carbamoyl]Ethyl}-1-Methylpiperazin-2-Yl)Acetate] the IC50 [1] was under 1 nM.
`COC(=O)C1CN(C)CCN1CCC(=O)Nc1cc(Nc2cc(-c3cc(Cl)ccc3F)nnc2C)ccn1` (stereo not drawn) [Example 99, Methyl 1-{2-[(4-{[6-(5-Chloro-2-Fluorophenyl)-3-Methylpyridazin-4-Yl]Amino}Pyridin-2-Yl)Carbamoyl]Ethyl}-4-Methylpiperazine-2-Carboxylate] showed an IC50 [1] of under 1 nM.
`CN1CCC(CN2CCN(C(=O)Oc3ccc4c(Nc5cnnc(-c6cc(Cl)ccc6F)c5)ccnc4c3)CC2)CC1` [Example 100, 4-{[6-(5-Chloro-2-Fluorophenyl)Pyridazin-4-Yl]Amino}Quinolin-7-Yl 4-[(1-Methylpiperidin-4-Yl)Methyl]Piperazine-1-Carboxylatate] was tested, and the IC50 was 1 to 5 nM.
In the case of `COC(=O)CC1CN(C)CCN1CCC(=O)Nc1cc(Nc2cc(-c3cc(Cl)ccc3F)nnc2C)ccn1` (stereo not drawn) [Example 101, methyl 2-(1-{2-[(4-{[6-(5-chloro-2-fluorophenyl)-3-methylpyridazin-4-yl]amino}pyridin-2-yl)carbamoyl]ethyl}-4-methylpiperazin-2-yl)acetate], the IC50 [1] is reported as under 1 nM.
For `COC(=O)CC1CNCCN1CCC(=O)Nc1cc(Nc2cc(-c3cc(Cl)ccc3F)nnc2C)ccn1` (stereo not drawn) [Example 102, Methyl 2-(1-{2-[(4-{[6-(5-Chloro-2-Fluorophenyl)-3-Methylpyridazin-4-Yl]Amino}Pyridin-2-Yl)Carbamoyl]Ethyl}Piperazin-2-Yl)Acetate], the IC50 [1] was under 1 nM.
`CN1CCC(N2CCN(C(=O)Oc3ccc4c(Nc5cnnc(-c6cc(Cl)ccc6F)c5)ccnc4c3)CC2)CC1` [Example 103, 4-{[6-(5-Chloro-2-Fluorophenyl)Pyridazin-4-Yl]Amino}Quinolin-7-Yl 4-(1-Methylpiperidin-4-Yl)Piperazine-1-Carboxylate] showed an IC50 of 1 to 5 nM.
